Source: patent publication US20260014129A1, “MITOCHONDRIAL PYRUVATE METABOLISM INHIBITORS FOR TREATING CHRONIC MYELOID LEUKEMIA” (The University Court of the University of Glasgow, priority 2022, published 2026)

How the values were obtained:
[1] = test system: K562 CML cell line; assay: 13C6 glucose tracing in K562 CML cell line; assay type: cell-based, human; conditions: K562, several concentrations
Description: For conjugation of palmitate, a 20 mM stock was made in 100% EtOH. This was incubated on a shaking heater, 60° C. until the solution clarified. The palmitate was then added to 10% BSA (ultra-fatty acid free in EBSS, Roche, 03117057001) to give a palmitate:BSA ratio of 1:3 BSA. This solution was left for 15 min in water bath (37° C.), and then added to final concentration in complete medium. For cell line experiments, the medium was RPMI with 10% dialysed FBS and 1% penicillin/streptomycin. For tracing experiments 11 mM ^13C6 glucose was added to glucose-free RPMI.
Biological and technical replicates were processed through Autoplotter (56) and natural abundance was corrected for. Fraction of enrichment was calculated as m+2 and above. For CML samples treated with or without imatinib, multiple paired T-tests were conducted on Log 10 transformed values in Graphpad Prism. The correction for multiple comparisons was the two-stage step-up method of Benjamini, Krieger and Yekutieli with an FDR (Q) value of 10%. For volcano plots Log 10 FC vs Log 10 (q value) are plotted with q values>5% in red and >10% in blue. For normal vs CML comparisons, the process was the same with the exception that unpaired t-tests were used. For PC activity in normal vs CML, this is denoted by fraction m+3. For imatinib vs untreated we look at relative activity to PDH. IE., the m+3/m+2 ratio and conducted multiple t-tests with correction for multiple comparisons being the two-stage step-up method of Benjamini, Krieger and Yekutieli with an FDR (Q) value of 10%. To examine contribution to carbon pool we corrected contribution of each isotopologue by the number of carbons it contributes to a given metabolite, i.e., for glutamine contribution from m+5 is greater than m+3. Note that for cell line experiments standard deviation is shown.

[2] = test system: T1, FBS (Bos taurus); conditions: as previously reported (ref 44); cited from earlier work
T1 construct: host or cells: FBS in culture medium
T1 sequence (P02769 25-607): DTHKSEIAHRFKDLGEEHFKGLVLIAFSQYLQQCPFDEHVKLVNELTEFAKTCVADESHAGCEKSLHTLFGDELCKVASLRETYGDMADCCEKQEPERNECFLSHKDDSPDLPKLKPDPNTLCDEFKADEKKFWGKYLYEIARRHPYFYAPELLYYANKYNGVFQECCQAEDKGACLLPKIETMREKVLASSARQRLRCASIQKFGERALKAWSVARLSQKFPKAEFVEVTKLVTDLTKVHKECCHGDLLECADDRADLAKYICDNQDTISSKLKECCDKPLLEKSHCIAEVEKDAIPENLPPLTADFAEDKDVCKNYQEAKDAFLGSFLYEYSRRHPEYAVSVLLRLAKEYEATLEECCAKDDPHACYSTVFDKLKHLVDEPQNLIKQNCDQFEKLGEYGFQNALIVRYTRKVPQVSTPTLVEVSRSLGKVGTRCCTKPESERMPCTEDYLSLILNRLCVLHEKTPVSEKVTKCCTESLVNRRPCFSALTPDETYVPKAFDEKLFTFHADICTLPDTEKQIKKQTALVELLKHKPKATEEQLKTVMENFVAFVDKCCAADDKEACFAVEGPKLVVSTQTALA

[3] = test system: K562 cells; assay: Viability (Annexin V/7AAD) and CFC assays of vector control versus PC knockout K562 cells; assay type: cell-based, human; conditions: 72 hours; 600 nm imatinib or 100 nm omacetaxine
Description: (a) Western blot of PC and loading control (tubulin) from vector control or PC knockout K562 cells. (b) Proliferation of K562 cells from A. Shown is average and SEM from 3 independent experiments. (c) Fractional labelling from ^13C6 glucose into indicated metabolites of PC knockout cells are shown (n=3) after 24 hours. Plots were generated using Autoplotter, average and SD are plotted. Statistical analyses were conducted on the m+5 fraction. An ordinary one-way ANOVA was used with Dunnett's test used to correct for multiple comparisons. (d) Cells viability was measured using Annexin V and 7AAD. Cells were either left untreated (UT) or exposed for 72 hours to 600 nm imatinib or 100 nm omacetaxine (OMA). Shown is average and SEM from 4 independent experiments. An ordinary one-way ANOVA was used with Dunnett's test used to correct for multiple comparisons. (e) Colony Forming Cell (CFC) potential of control and […] cells. Cells were either left untreated (UT) or exposed for 72 hours to 600 nm imatinib. Shown is average and SEM from 4 independent experiments. An ordinary one-way ANOVA was used with Dunnett's test used to correct for multiple comparisons. […]

[4] = test system: CML CD34+ cells; assay: Extracellular flux of spent medium by YSI bioanalyser; assay type: cell-based, human
Description: A YSI 2900 biochemistry analyser was used as per the manufacturer's instructions to quantify glucose, lactate, glutamine, and glutamate in the media. The concentration of each metabolite was normalised to cell number and the rate of uptake or secretion per hour was calculated relative to cell free medium. The exchange rate per 48 hours [secretion (+) or consumption (−)] for a specific metabolite (x) was obtained according to the following equation:

[5] = test system: phospho-CRKL; assay: Western blot of phospho-CRKL in CML patient samples; assay type: cell-based, human; conditions: imatinib, two patient samples
Description: Cells were lysed in RIPA buffer containing mini-Complete protease inhibitor cocktail and phosphatase inhibitors (both Roche). Total protein concentration was quantified using a Pierce BCA kit (Thermo Fisher Scientific: 23227). Equal amounts of protein (5-7.5 μg) were heated at 95° C. for 5 min and separated (120V) in 4-12% gels (Novex) for SDS-PAGE. Proteins were transferred onto PDVF membranes (Thermo Fisher Scientific: 21882) then blocked in 2% BSA (in Tris-buffered saline, 0.01% Tween (TBS-T)) for one hour. Next, membranes were incubated overnight at 4° C. with the primary antibodies. The membranes were rinsed three times with TBS-T, then incubated with secondary HRP-linked antibodies (1:10,000) for 1 hour at room temperature. The SuperSignal West Femto Maxi detection system was used (Thermo Fisher Scientific: 34095) and imaging was carried out using a LI-COR Odyssey Fc gel-doc system.

[6] = test system: CML CD34+ cells; assay: RNA-seq differential gene expression and GSEA of imatinib-treated CML CD34+ cells; assay type: cell-based, human; conditions: imatinib 2 μM, 48 hours
Description: RNA was extracted from 200,000 CML CD34+ cells using an RNA easy mini kit (Qiagen) according to the manufacturer's instructions.
Libraries were prepared using the Illumina TruSeq Stranded mRNA LT Kit (Illumina) and run on the Illumina Next Seq 500 using the High Output 75 cycles kit (2×36 cycles, paired end reads, single index; Illumina). FastQ files were generated using Illumina's bcl2fastq (v. 2.20.0.422).
QC, alignment, and parsing of files into count matrices was performed in command line, with subsequent differential gene expression (DGE) analysis performed in R (1.2.1335). Adapter trimming was performed using Scythe (version 0.981), and Sickle (version 0.940), was used to trim bases with quality scores of less than 20. Prior to and after this pre-processing fastqc (version 0.11.2) was run to ascertain sequence quality, alongside the efficacy of the pre-processing steps. Trimmed reads were indexed and aligned using Hisat2 (version 2.1.0). Hisat2 indexes (GRCh38 genome_tran) were obtained from the John Hopkins Center for Computational Biology, 2020. Samtools (version 0.1.19044428cd) view was used to convert the resulting .sam to .bam files, whilst samtools sort was used to sort the .bam files. Assembly was achieved through the use of stringtie (John Hopkins Center for Computational Biology, 2020), with output .gtf files converted to count matrices using the python script prepDE.py (stringtie version 1.3.3b.Linux_x86_64). Reads were assembled using an annotated reference human genome (GRCh38.p13), obtained from GENCODE (GENECODE, 2020). DESeq2 (version 1.26.0) was used to generate results sets from the gene and transcript count matrices. G genes with read counts too low to allow for the calculation of p and adjusted p-values (padj: Benjamini-Hochberg) were removed from the data sets leaving gene and transcript counts of sizes 16,069 and 45,218 respectively.
GSEA (version 4.1) was conducted on pre-ranked lists (ranked by pi score calculated by multiplying LOG fold change by −LOG (corrected p-value)).

| SMILES | labelled fractions in alpha-ketoglutarate (AKG) and AKG-derived glutamate [1] | glucose contribution to fraction of labelling ([1]; data not shown) | binding to FBS [2] | sensitisation of K562 to the drug by PC ablation, viability and CFC assays [3] | glucose consumption ([4]; imatinib-treated vs control primary CML CD34+ cells) | glutamine consumption ([4]; imatinib-treated vs untreated primary CML CD34+ cells) | phospho-CRKL protein level [5] | most downregulated pathways in GSEA ([6]; Hallmark gene sets) | PC transcript level ([6]; paired transcriptomic data) | PDH transcript level ([6]; paired transcriptomic data) |
| --- | --- | --- | --- | --- | --- | --- | --- | --- | --- | --- |
| CCc1ccc(C(=O)COc2ccc(CC3SC(=O)NC3=O)cc2)nc1 (stereo not shown) [MSDC-0160] | reducing levels of all labelled fractions in these metabolites in a concentration-dependent manner | concentration-dependent reduction | high FBS binding | – | – | – | – | – | – | – |
| Cc1ccc(NC(=O)c2ccc(CN3CCN(C)CC3)cc2)cc1Nc1nccc(-c2cccnc2)n1 [imatinib] | – | – | – | sensitised | consumed less glucose than control cells, when corrected for a decrease in proliferation this difference disappeared | decreased | decreased | oxidative phosphorylation, glycolysis, and fatty acid oxidation | no change | downregulation |
